Test results taken from article PMC12640663 (Chemmedchem, 2025).

Tests used:
hPTP1B1–285 = target: T1, hPTP1B1–285 (Homo sapiens, UniProt P18031); test: PTP1B activity assay, short form hPTP1B1–285 (p‐NPP); format: biochemical; conditions: ± S.D; p‐NPP substrate, 15 min at 37 °C
T1 construct: hPTP1B1–285 (the short form with an N‐terminal catalytic domain)
T1 sequence (P18031 1-285): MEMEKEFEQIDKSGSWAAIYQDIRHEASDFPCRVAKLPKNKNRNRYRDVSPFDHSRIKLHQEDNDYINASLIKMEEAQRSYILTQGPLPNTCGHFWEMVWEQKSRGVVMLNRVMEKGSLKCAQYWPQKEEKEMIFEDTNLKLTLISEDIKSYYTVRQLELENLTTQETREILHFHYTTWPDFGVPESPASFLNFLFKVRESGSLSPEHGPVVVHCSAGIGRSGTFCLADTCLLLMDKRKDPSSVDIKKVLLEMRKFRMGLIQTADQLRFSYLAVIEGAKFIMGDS
Procedure: The inhibitory activity of PTP1B was assessed using two enzyme variants: hPTP1B1–285 (the short form with an N‐terminal catalytic domain) and hPTP1B1–400 (the long form with an intrinsically disordered C‐terminal regulatory domain). […] According to Coronel‐Tovar et al., the disordered region of the C‐terminal domain plays a crucial role in modulating PTP1B enzymatic activity.^[ [30] ^] […] Different concentrations of the compounds were evaluated to determine their IC50 values (Table 1 ).
To do so, these terpenoids were tested against hPTP1B1–285.
Recombinant human protein tyrosine phosphatase 1B, consisting of 400 and 285 amino acid residues, was used.^[ [35] ^] […] Aliquots of 0–10 µL of the test compounds (triplicate) were taken and incubated for 15 min at 37 °C with 85 µL of Tris buffer solution (50 mM, pH 6.8) containing PTP1B enzyme and 5 µL of p‐nitrophenyl phosphate substrate (p‐NPP, 10 mM). Absorbance was then measured at a wavelength of 405 nm. The inhibitory activity was determined according to Equation (1). (1) % PTP1B=(A405b/A405c)×100 where % PTP1B: Is the percentage of inhibition. A 405c: Is the corrected absorbance of the blank (A 405initial–A 405final). A 405b: Is the corrected absorbance of the compounds (A 405control–A 405compound).

TCPTP = target: T2, TCPTP (Homo sapiens, UniProt P17706); test: T‐cell protein tyrosine phosphatase (TCPTP) activity assay (p‐NPP); format: biochemical; conditions: ± S.D; assessed up to 100 μM; read-out: TCPTP IC50
T2 sequence (P17706 1-415): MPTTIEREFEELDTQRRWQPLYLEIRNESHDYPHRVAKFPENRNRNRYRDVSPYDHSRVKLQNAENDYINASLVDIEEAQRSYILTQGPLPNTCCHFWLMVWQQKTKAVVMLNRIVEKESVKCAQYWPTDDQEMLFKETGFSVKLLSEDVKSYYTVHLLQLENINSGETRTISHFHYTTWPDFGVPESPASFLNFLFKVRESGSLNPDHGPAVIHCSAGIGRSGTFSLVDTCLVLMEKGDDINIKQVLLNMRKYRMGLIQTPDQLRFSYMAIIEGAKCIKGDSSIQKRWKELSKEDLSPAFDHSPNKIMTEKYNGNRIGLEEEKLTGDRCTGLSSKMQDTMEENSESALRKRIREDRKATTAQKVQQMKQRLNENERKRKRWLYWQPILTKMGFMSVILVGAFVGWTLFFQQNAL
Procedure: The effectiveness and safety of protein tyrosine phosphatase (PTP) inhibitors depend on their specificity. PTP1B and TCPTP serve different functions: PTP1B is involved in metabolism and cancer, while TCPTP regulates immune function. Inhibiting TCPTP could impact the immune response, whereas inhibiting PTP1B may benefit metabolic diseases without these side effects.^[ [20] ^, [34] ^, [35] ^] […] These compounds were assessed up to 100 μM (Table 1).
TCPTP enzyme reported by Mendoza et al. was used for this assay. […] Aliquots of 0–10 µL (triplicate) of the newly synthesized compounds, positive control, and solvent were taken. These were incubated with 85 µL of enzyme solution (Tris, 50 mM, pH 6.8, TCPTP) and 5 µL of substrate (p‐NPP, 10 mM) for 15 min at 37 °C.

## CC1(C(=O)O)CCC2(C)CCC3(C)C(=CC(=O)C4C5(C)Cc6c([nH]c7ccc(C(F)(F)F)cc67)C(C)(C)C5CCC43C)C2C1 (centres unmarked) [Compound 3c]
hPTP1B1–285
  IC50: 14.9 ± 0.95 µM
TCPTP
  IC50: > 100 µM
